Laboratory results: patent EP4417602A1, “SUBSTITUTED PYRAZOLE CARBOXAMIDES, SALTS THEREOF AND THEIR USE AS HERBICIDALLY ACTIVE SUBSTANCES” (Bayer AG, priority 2023, dated 2024)
Blank lines part the entries; values can stand above or below the molecule they belong to.

Assays:
ZEAMX [1] = test: D. Pre-emergence effects on crop plants (Tables D); type: in vivo, Zea mays; conditions: crop plant
Description: (§1) Seeds of mono- and dicotyledonous weed plants and crop plants were sown, in plastic or organic planting pots, in sandy loam and covered with soil. The compounds according to the invention, formulated in the form of wettable powders (WP) or as emulsifiable concentrates (EC), were applied to the surface of the covering soil as aqueous suspension or emulsion, with the addition of 0.5% of an additive, at an application rate of 6001 of water/ha (converted).
(§2) Following treatment, the pots were placed in a greenhouse and kept under optimum growth conditions for the test plants. The visual grading of the damage to the test plants was carried out after ca. 3 weeks in comparison to untreated controls (herbicidal effect in percent (%): 100% effect = plants have died off, 0% effect = as control plants).
(§3) Tables D1 to D5 below show the effects of various compounds of the general formula (I) according to Table 1 on various crop plants and an application rate corresponding to 320 g/ha or below obtained by the experimental procedure mentioned above in Biological Examples, Section C. Table D1a: pre-emergence activity at 320g/ha against ZEAMX in %

BRSNW [2] = test: F. Post-emergence effects on crop plants (Tables F); type: in vivo, Brassica napus; conditions: application rate 320 g/ha, crop plant
Description: (§4) Seeds of mono- and dicotyledonous weed plants and crop plants were sown, in plastic or organic planting pots, in sandy loam, covered with soil and grown in a greenhouse under controlled growth conditions. 2 to 3 weeks after sowing, the test plants were sprayed in the single-leaf stage. The compounds according to the invention, formulated in form of wettable powders (WP) or as emulsifiable concentrates (EC), were sprayed onto the green plant parts as aqueous suspension or emulsion, with the addition of 0.5% of an additive, at an application rate of 6001 of water/ha (converted). The test plants were placed in the greenhouse for ca. 3 weeks under optimum growth conditions, and then the effect of the preparations was assessed visually in comparison with untreated controls (herbicidal effect in percent (%): 100% effect = plants have died off, 0% effect = as control plants). Tables F1 to F5 below show the effects of selected compounds of the general formula (I) according to table 1 on various crop plants and an application rate corresponding to 320 g/ha or below obtained by the experimental procedure mentioned above. Table […]: post-emergence activity at 320g/ha against ZEAMX in %

ZEAMX [3] = test: as above; type: in vivo, Zea mays; conditions: crop plant
Description: as §4

BRSNW [4] = test: D. Pre-emergence effects on crop plants (Tables D); type: in vivo, Brassica napus; conditions: crop plant
Description: as §1, §2, §3

GLXMA [5] = test: D. Pre-emergence effects on crop plants (Tables D); type: in vivo, Glycine max; conditions: crop plant
Description: as §1, §2, §3

TRZAS [6] = test: F. Post-emergence effects on crop plants (Tables F); type: in vivo, Triticum aestivum; conditions: crop plant
Description: as §4

TRZAS [7] = test: D. Pre-emergence effects on crop plants (Tables D); type: in vivo, Triticum aestivum; conditions: crop plant
Description: as §1, §2, §3

GLXMA [8] = test: F. Post-emergence effects on crop plants (Tables F); type: in vivo, Glycine max; conditions: application rate 320 g/ha, crop plant
Description: as §4

DIGSA [9] = test: A. Herbicidal pre-emergence action on harmful plants (Tables A); type: in vivo, Digitaria sanguinalis
Summary of the method: (§5)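 Greenhouse pre-emergence test: compound applied to the soil surface at 1280 g/ha or below, and herbicidal effect rated visually at ca. 3 weeks on a 0–100% scale against untreated plants.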

MATIN [10] = test: as above; type: in vivo, Matricaria inodora; conditions: visual grading after ca. 3 weeks vs untreated controls, 100% = plants have died off, 0% = as control plants
Summary of the method: as §5

MATIN [11] = test: B. Herbicidal post-emergence action on harmful plants (Tables B); type: in vivo, Matricaria inodora
Summary of the method: (§6)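 Activity was scored visually as % damage (100% = dead, 0% = like untreated) about 3 weeks after treatment. Plants at the one-leaf stage, 2-3 weeks old, were sprayed with WP/EC formulations plus 0.5% additive (600 L/ha water, up to 1280 g/ha). Plants were grown in sandy loam in a greenhouse.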

VERPE [12] = test: A. Herbicidal pre-emergence action on harmful plants (Tables A); type: in vivo, Veronica persica; conditions: application rate 1280 g/ha; Table A11
Description: Seeds of mono- and dicotyledonous weed plants were sown in plastic pots (double sowings with one species of mono- and one species of dicotyledonous weed plants per pot), in sandy loam, and covered with soil. The compounds according to the invention, formulated in the form of wettable powders (WP) or as emulsifiable concentrates (EC), were applied to the surface of the covering soil as aqueous suspension or emulsion, with the addition of 0.5% of an additive, at an application rate of 6001 of water per hectare (converted). Following treatment, the pots were placed in a greenhouse and kept under optimum growth conditions for the test plants. The visual grading of the damage to the test plants was carried out after ca. 3 weeks in comparison to untreated controls (herbicidal effect in percent (%): 100% effect = plants have died off, 0% effect = as control plants). Tables A1 to A12, below, show the effects of selected compounds of the general formula (I) according to table 1 on various harmful plants and an application rate corresponding to 1280 g/ha or below obtained by the experimental procedure mentioned above. Table A1: pre-emergence activity at 1280g/ha against ABUTH in %

STEME = test: as above; type: in vivo, Stellaria media; conditions: visual grading after ca. 3 weeks vs untreated controls, 100% = plants have died off, 0% = as control plants
Summary of the method: as §5

ECHCG [13] = test: B. Herbicidal post-emergence action on harmful plants (Tables B); type: in vivo, Echinochloa crus-galli; conditions: application rate 1280 g/ha; Table B2a
Summary of the method: as §6

ECHCG [14] = test: A. Herbicidal pre-emergence action on harmful plants (Tables A); type: in vivo, Echinochloa crus-galli; conditions: visual grading after ca. 3 weeks vs untreated controls, 100% = plants have died off, 0% = as control plants
Summary of the method: as §5

SETVI = test: as above; type: in vivo, Setaria viridis; conditions: visual grading after ca. 3 weeks vs untreated controls, 100% = plants have died off, 0% = as control plants
Summary of the method: as §5

POAAN [15] = test: B. Herbicidal post-emergence action on harmful plants (Tables B); type: in vivo, Poa annua
Summary of the method: as §6

ALOMY = test: A. Herbicidal pre-emergence action on harmful plants (Tables A); type: in vivo, Alopecurus myosuroides
Summary of the method: as §5

POAAN [16] = test: as above; type: in vivo, Poa annua
Summary of the method: as §5

AMARE = test: as above; type: in vivo, Amaranthus retroflexus; conditions: application rate 1280 g/ha; visual grading after ca. 3 weeks vs untreated controls; 100% = plants have died off, 0% = as control plants
Summary of the method: as §5

VERPE [17] = test: B. Herbicidal post-emergence action on harmful plants (Tables B); type: in vivo, Veronica persica; conditions: application rate 1280 g/ha; Table B11a
Summary of the method: as §6

LOLRI = test: A. Herbicidal pre-emergence action on harmful plants (Tables A); type: in vivo, Lolium rigidum; conditions: visual grading after ca. 3 weeks vs untreated controls, 100% = plants have died off, 0% = as control plants
Summary of the method: as §5

ABUTH = test: B. Herbicidal post-emergence action on harmful plants (Tables B); type: in vivo, Abutilon theophrasti; conditions: application rate 1280 g/ha; Table B1a
Protocol: (§7) Seeds of mono- and dicotyledonous weed plants were placed in plastic pots in sandy loam soil (doubly sown with in each case one species of mono- or dicotyledonous weed plants per pot), covered with soil and cultivated in a greenhouse under controlled growth conditions. 2 to 3 weeks after sowing, the test plants were treated at the one-leaf stage. The compounds of the invention, formulated in the form of wettable powders (WP) or as emulsion concentrates (EC), were applied onto the green parts of the plants as aqueous suspension or emulsion with addition of 0.5% additive at a water application rate of 600 liters per hectare (converted). After the test plants had been kept in the greenhouse under optimum growth conditions for about 3 weeks, the activity of the preparations was rated visually in comparison to untreated controls. For example, 100% activity = the plants have died, 0% activity = like control plants. Tables B1 to B12, below, show the effects of selected compounds of the general formula (I) according to table 1 on various harmful plants and an application rate corresponding to 1280 g/ha or below obtained by the experimental procedure mentioned above. Table B1a: post-emergence activity at 1280g/ha against ABUTH in %

DIGSA [18] = test: as above; type: in vivo, Digitaria sanguinalis; conditions: application rate 1280 g/ha; Table B12a
Protocol: as §7

pre-emergence activity against ZEAMX (ZEAMX [1]; application rate 80 g/ha, Table D1b): 0%
pre-emergence activity against ZEAMX (ZEAMX [1]; application rate 320 g/ha, Table D1a): 0%
pre-emergence activity against GLXMA (GLXMA [5]; application rate 80 g/ha, Table D4b): 0%
pre-emergence activity against GLXMA (GLXMA [5]; application rate 320 g/ha, Table D4a): 0%
pre-emergence activity against TRZAS (TRZAS [7]; application rate 80 g/ha, Table D2b): 0%
pre-emergence activity against TRZAS (TRZAS [7]; application rate 320 g/ha, Table D2a): 0%
SMILES: Cn1cc(C(=O)N2CCCC2Cc2ccccc2F)c(COCC2COC2)n1 (racemic) [Example I-091]
post-emergence activity against BRSNW in % (BRSNW [2]): 0%
post-emergence activity against ZEAMX in % (ZEAMX [3]; application rate 80 g/ha): 0%
post-emergence activity against ZEAMX in % (ZEAMX [3]; application rate 320 g/ha): 0%
pre-emergence activity against BRSNW in % (BRSNW [4]; application rate 80 g/ha): 0%
pre-emergence activity against BRSNW in % (BRSNW [4]; application rate 320 g/ha): 0%
post-emergence activity against TRZAS in % (TRZAS [6]; application rate 80 g/ha): 0%
post-emergence activity against TRZAS in % (TRZAS [6]; application rate 320 g/ha): 0%
post-emergence activity against GLXMA in % (GLXMA [8]): 0%

SMILES: COCc1nn(C)cc1C(=O)N1CCCC1Cc1cccc(F)c1F (racemic) [Example I-077]
pre-emergence activity against DIGSA (DIGSA [9]; application rate 320 g/ha, Table A12b): 100%
pre-emergence activity against DIGSA (DIGSA [9]; application rate 1280 g/ha, Table A12a): 100%
pre-emergence activity against MATIN (MATIN [10]; application rate 320 g/ha): 90%
pre-emergence activity against MATIN (MATIN [10]; application rate 1280 g/ha): 90%
post-emergence activity against MATIN (MATIN [11]; application rate 320 g/ha, Table B4b): 90%
post-emergence activity against MATIN (MATIN [11]; application rate 1280 g/ha, Table B4a): 90%
pre-emergence activity against VERPE (VERPE [12]): 90%
pre-emergence activity against STEME (STEME; application rate 80 g/ha): 90%
pre-emergence activity against STEME (STEME; application rate 320 g/ha): 90%
pre-emergence activity against STEME (STEME; application rate 1280 g/ha): 90%
post-emergence activity against ECHCG (ECHCG [13]): 90%
pre-emergence activity against ECHCG (ECHCG [14]; application rate 80 g/ha): 90%
pre-emergence activity against ECHCG (ECHCG [14]; application rate 320 g/ha): 90%
pre-emergence activity against ECHCG (ECHCG [14]; application rate 1280 g/ha): 100%
pre-emergence activity against SETVI (SETVI; application rate 320 g/ha): 90%
pre-emergence activity against SETVI (SETVI; application rate 1280 g/ha): 90%
post-emergence activity against POAAN (POAAN [15]; application rate 320 g/ha, Table B7b): 90%
post-emergence activity against POAAN (POAAN [15]; application rate 1280 g/ha, Table B7a): 90%
pre-emergence activity against ALOMY (ALOMY; application rate 320 g/ha, Table A9b): 90%
pre-emergence activity against ALOMY (ALOMY; application rate 1280 g/ha, Table A9a): 90%
pre-emergence activity against POAAN (POAAN [16]; application rate 80 g/ha, Table A7c): 100%
pre-emergence activity against POAAN (POAAN [16]; application rate 320 g/ha, Table A7b): 100%
pre-emergence activity against POAAN (POAAN [16]; application rate 1280 g/ha, visual grading after ca. 3 weeks vs untreated controls, 100% = plants have died off, 0% = as control plants): 100%
pre-emergence activity against AMARE (AMARE): 90%
post-emergence activity against VERPE (VERPE [17]): 90%
pre-emergence activity against LOLRI (LOLRI; application rate 320 g/ha): 90%
pre-emergence activity against LOLRI (LOLRI; application rate 1280 g/ha): 100%
post-emergence activity against ABUTH (ABUTH): 90%
post-emergence activity against DIGSA (DIGSA [18]): 90%
